One test deals with T1, CDK2/Cyclin E2 (Homo sapiens, UniProt P24941).
T1 construct: Recombinant protein complex CDK2/Cyclin E2, expressed from insect cell, was purchased from ProQinase
The test is described as follows: CDK2/CyclinE2 Enzymatic Activity Assay (TR-FRET). Format: biochemical. As to conditions: ATP 1 mM final, read-out: CDK2_E1 IC50. How it is done: CDK2/CyclinE2 Enzymatic Activity Assay
The inhibitory activity of compounds was evaluated in vitro using TR-FRET assay with white 384-well low volume microplate (Greiner Bio-One). CDK2/Cyclin E2 catalyzed phosphorylation of peptide in the presence and absence of compounds was measured and used in IC50 determination. Recombinant protein complex CDK2/Cyclin E2, expressed from insect cell, was purchased from ProQinase. Testing compounds were dissolved in DMSO at 1 mM and tested in 9-dose IC50 mode. The reaction mixture was prepared by mixing CDK2/CyclinE2 (1 nM final), ULight-4E-BP1 (50 nM final, Perkinelmer, TRF0128-D), and ATP (1 mM final) in assay buffer (20 mM of HEPES pH 7.4, 1 mM of EGTA, 0.05% BSA, 0.005% Tween 20, and 1 mM TCEP). The compound of interest in DMSO was added to each well in 3-fold serial dilution by dispenser (TECAN D300E) to make a 9.9 μL of reaction mixture. After 20 minutes preincubation at room temperature, 0.1 μL MgCl2 (10 mM final) was added to initiate the reaction. Following a 45 minute incubation at 37° C., the reaction was stopped by addition of 2 μL of quenching buffer consisting of Lance detection buffer (Perkinelmer CR97-100C), LANCE Ultra Europium-anti-P-4E-BP1 (Perkinelmer, TRF0216-D), EDTA, and incubated at room temperature for additional 60 minutes in the dark. The reaction signal was measured by Envision multimode plate reader (PerkinElmer, 2102-0010). IC50 values were determined by fitting the data to the standard 4 parameters with Hill Slope using GraphPad Prism software.
For orientation: Time-resolved FRET reads energy transfer from a long-lived donor to a nearby acceptor.

A further test relates to OVCAR3 p-RB. As to the kind of experiment: pRB ICW Assay in OVCAR3 Cells. Format: cell-based. The settings on record: Homo sapiens, OVCAR-3, incubated with compound for 2 hours. How it is done: pRB ICW Assay in OVCAR3 Cells
OVCAR3 cells were maintained in RPMI (Corning, Catalog #: 10-040-CV) supplemented with 10% v/v FBS (Gibco, Catalog #: 26140-079), 1% v/v Penicillin Streptomycin (Gibco, Catalog #15140-122.) OVCAR3 cells grown at log phase were trypsinized, counted, and resuspended in fresh medium to reach a final density of 6.7e4 cells/mL and 75 μL of culture were dispensed into a 384-well plate (Falcon, cat #353962) using a Multidrop Combi dispenser (Thermo Scientific). The next day, compounds were dispensed as a 9-point, ½ log serial dilution using a Tecan digital dispenser (D300e), and cells were incubated with compound for 2 hours in a humidified incubator at 37° C. A reference compound at a final concentration of 10 μM was used as a control for maximum inhibition. Each compound was tested in duplicate for each experiment. At the end of the incubation, […] (Electron Microscopy, cat #15710) was slowly added to each well and the plate was incubated at room temperature (RT) for 30 minutes to fix cells. Cells were then permeabilized by incubating with 50 μL/well of wash buffer (1×PBS with 0.1% Triton X-100) 5×5 minutes, followed by 1 hour blocking with 30 μL/well of Odyssey blocking buffer (Li-COR, cat #927-40000), at RT. Anti-phosphor RB antibody (Cell signaling 8516S) was diluted 1:1000 in Odyssey blocking buffer and 20 μL was added to all wells and incubated overnight in 4° C. with gently rocking. The next day, cells were washed 5×5 min with 50 μL/well of wash buffer, followed with 1 hour incubation with secondary antibody and DRAQ5 diluted in Odyssey blocking buffer (1:500 dilution for secondary antibody and 1:2000 dilution for DRAQ5), 5×5 min washes, and one last wash with water. Plates were dried in 37° C. oven for 5 minutes and scanned using Li-COR Odyssey CLx imaging system to acquire intensities at 700 and 800 nm channels.

pIC50: −log10 of the molar value.

Regarding `CC(C)(O)c1sc(-c2nc(N[C@@H]3CCN(S(C)(=O)=O)C[C@H]3F)ncc2C(F)(F)F)cc1C#N` [Example 116, 5-(2-(((3R,4R)-3-fluoro-1-(methylsulfonyl)piperidin-4-yl)amino)-5-(trifluoromethyl)pyrimidin-4-yl)-2-(2-hydroxypropan-2-yl)thiophene-3-carbonitrile], the pIC50 on CDK2/Cyclin E2 and with OVCAR3 p-RB was not below 7.00 throughout.

Take `CC(O)c1cnc(-c2nc(N[C@@H]3CCN(S(=O)(=O)c4cnn(C)c4)C[C@H]3F)ncc2C(F)(F)F)s1` (stereo partly drawn) [Example 115, 1-(2-(2-(((3R,4R)-3-fluoro-1-((1-methyl-1H-pyrazol-4-yl)sulfonyl)piperidin-4-yl)amino)-5-(trifluoromethyl)pyrimidin-4-yl)thiazol-5-yl)ethan-1-ol]: the pIC50 at CDK2/Cyclin E2 and in the test with OVCAR3 p-RB was not below 7.00 in each case.

Regarding `CC(C)(O)c1cnc(-c2nc(NC3CCN(S(C)(=O)=O)CC3)ncc2C(F)(F)F)s1` [Example 95, 2-(2-(2-((1-(methylsulfonyl)piperidin-4-yl)amino)-5-(trifluoromethyl)pyrimidin-4-yl)thiazol-5-yl)propan-2-ol], the pIC50 at CDK2/Cyclin E2 is not below 7.00; in the test with OVCAR3 p-RB, 6.30 to 7.00.

On to `Cn1cc(S(=O)(=O)N2CC[C@@H](Nc3ncc(C(F)(F)F)c(-c4ncc(C(C)(C)O)s4)n3)[C@H](F)C2)cn1` [Example 101, 2-(2-(2-(((3R,4R)-3-fluoro-1-((1-methyl-1H-pyrazol-4-yl)sulfonyl)piperidin-4-yl)amino)-5-(trifluoromethyl)pyrimidin-4-yl)thiazol-5-yl)propan-2-ol], for which the pIC50 at CDK2/Cyclin E2 and in the test with OVCAR3 p-RB was not below 7.00 in each case.

As to `Cn1cc(S(=O)(=O)N2CC[C@@H](Nc3ncc(C(F)(F)F)c(-c4cc(C#N)c(CC(C)(C)O)s4)n3)[C@H](F)C2)cn1` [Example 126, 5-(2-(((3R,4R)-3-fluoro-1-((1-methyl-1H-pyrazol-4-yl)sulfonyl)piperidin-4-yl)amino)-5-(trifluoromethyl)pyrimidin-4-yl)-2-(2-hydroxy-2-methylpropyl)thiophene-3-carbonitrile], the pIC50 at CDK2/Cyclin E2 and with OVCAR3 p-RB was not below 7.00 in each case.

Turning to `CS(=O)(=O)N1CCC(Nc2ncc(C(F)(F)F)c(-c3ncc(C4(O)CCC4)s3)n2)CC1` [Example 106, 1-(2-(2-((1-(methylsulfonyl)piperidin-4-yl)amino)-5-(trifluoromethyl)pyrimidin-4-yl)thiazol-5-yl)cyclobutan-1-ol], the pIC50 on CDK2/Cyclin E2 is not below 7.00; in the test on OVCAR3 p-RB, 6.30 to 7.00.

Take `CC(C)(O)Cc1cnc(-c2nc(N[C@@H]3CCN(S(C)(=O)=O)C[C@H]3F)ncc2C(F)(F)F)s1` [Example 135, 1-(2-(2-(((3R,4R)-3-fluoro-1-(methylsulfonyl)piperidin-4-yl)amino)-5-(trifluoromethyl)pyrimidin-4-yl)thiazol-5-yl)-2-methylpropan-2-ol]: the figures for the pIC50 at CDK2/Cyclin E2 and in the test on OVCAR3 p-RB were not below 7.00 and 6.30 to 7.00, respectively.

Turning to `CS(=O)(=O)N1CCC(Nc2ncc(C(F)(F)F)c(-c3ncc(C(O)C(F)(F)F)s3)n2)CC1` (centres unmarked) [Example 113, 2,2,2-trifluoro-1-(2-(2-((1-(methylsulfonyl)piperidin-4-yl)amino)-5-(trifluoromethyl)pyrimidin-4-yl)thiazol-5-yl)ethan-1-ol], the negative-log IC50 (pIC50) on CDK2/Cyclin E2 and in the test with OVCAR3 p-RB was not below 7.00 in each case.

On to `CC(C)(O)c1cnc(-c2nc(N[C@@H]3CCN(S(C)(=O)=O)C[C@H]3F)ncc2C(F)(F)F)s1` [Example 97, 2-(2-(2-(((3R,4R)-3-fluoro-1-(methylsulfonyl)piperidin-4-yl)amino)-5-(trifluoromethyl)pyrimidin-4-yl)thiazol-5-yl)propan-2-ol], for which the pIC50 on CDK2/Cyclin E2 and in the test with OVCAR3 p-RB was not below 7.00 in each case.

As for `C[C@@H]1CN(S(=O)(=O)c2cn(C)cn2)CC[C@@H]1Nc1ncc(C(F)(F)F)c(-c2ncc(C(O)C(F)F)s2)n1` (stereo partly drawn) [Example 139, 2,2-difluoro-1-(2-(2-(((3R,4S)-3-methyl-1-((1-methyl-1H-imidazol-4-yl)sulfonyl)piperidin-4-yl)amino)-5-(trifluoromethyl)pyrimidin-4-yl)thiazol-5-yl)ethan-1-ol], the negative logarithm of the IC50 (pIC50) on CDK2/Cyclin E2 and in the test on OVCAR3 p-RB was not below 7.00 in each case.

`C[C@@H]1CN(S(=O)(=O)c2cnn(C)c2)CC[C@@H]1Nc1ncc(C(F)(F)F)c(-c2ncc(CC(C)(C)O)s2)n1` [Example 111, 2-methyl-1-(2-(2-(((3R,4S)-3-methyl-1-((1-methyl-1H-pyrazol-4-yl)sulfonyl)piperidin-4-yl)amino)-5-(trifluoromethyl)pyrimidin-4-yl)thiazol-5-yl)propan-2-ol]: the pIC50 at CDK2/Cyclin E2 and in the test on OVCAR3 p-RB was not below 7.00 throughout.

Take `Cn1cnc(S(=O)(=O)N2CC[C@H](Nc3ncc(C(F)(F)F)c(-c4ncc(CC(C)(C)O)s4)n3)[C@H](F)C2)c1` [Example 136, 1-(2-(2-(((3R,4S)-3-fluoro-1-((1-methyl-1H-imidazol-4-yl)sulfonyl)piperidin-4-yl)amino)-5-(trifluoromethyl)pyrimidin-4-yl)thiazol-5-yl)-2-methylpropan-2-ol]: the pIC50 at CDK2/Cyclin E2 and in the test with OVCAR3 p-RB was not below 7.00 throughout.

As for `C[C@@H]1CN(S(=O)(=O)c2cnn(C)c2)CC[C@@H]1Nc1ncc(C(F)(F)F)c(-c2ncc(C3(O)CC3)s2)n1` [Example 150, 1-(2-(2-(((3R,4S)-3-methyl-1-((1-methyl-1H-pyrazol-4-yl)sulfonyl)piperidin-4-yl)amino)-5-(trifluoromethyl)pyrimidin-4-yl)thiazol-5-yl)cyclopropan-1-ol], the negative-log IC50 (pIC50) at CDK2/Cyclin E2 is not below 7.00; with OVCAR3 p-RB it was 6.30 to 7.00.

Regarding `C[C@@H]1CN(S(C)(=O)=O)CC[C@@H]1Nc1ncc(C(F)(F)F)c(-c2ncc(C(O)C(F)F)s2)n1` (stereo partly drawn) [Example 146, 2,2-difluoro-1-(2-(2-(((3R,4S)-3-methyl-1-(methylsulfonyl)piperidin-4-yl)amino)-5-(trifluoromethyl)pyrimidin-4-yl)thiazol-5-yl)ethan-1-ol], the pIC50 at CDK2/Cyclin E2 is not below 7.00; in the test on OVCAR3 p-RB it was 6.30 to 7.00.

On to `CS(=O)(=O)N1CCC(Nc2ncc(C(F)(F)F)c(-c3cc(C#N)c(C(O)C(F)(F)F)s3)n2)CC1` (centres unmarked) [Example 122, 5-(2-((1-(methylsulfonyl)piperidin-4-yl)amino)-5-(trifluoromethyl)pyrimidin-4-yl)-2-(2,2,2-trifluoro-1-hydroxyethyl)thiophene-3-carbonitrile], for which the pIC50 at CDK2/Cyclin E2 and in the test with OVCAR3 p-RB was not below 7.00 in each case.

`C[C@@H]1CN(S(=O)(=O)c2cnn(C)c2)CC[C@@H]1Nc1ncc(C(F)(F)F)c(-c2ncc(C(O)C(F)F)s2)n1` (stereo partly drawn) [Example 138, 2,2-difluoro-1-(2-(2-(((3R,4S)-3-methyl-1-((1-methyl-1H-pyrazol-4-yl)sulfonyl)piperidin-4-yl)amino)-5-(trifluoromethyl)pyrimidin-4-yl)thiazol-5-yl)ethan-1-ol]: the pIC50 at CDK2/Cyclin E2 and in the test with OVCAR3 p-RB was not below 7.00 in each case.

As to `CC(C)(O)Cc1cnc(-c2nc(N[C@H]3CCN(S(=O)(=O)c4cn[nH]c4)C[C@H]3F)ncc2C(F)(F)F)s1` [Example 137, 1-(2-(2-(((3R,4S)-1-((1H-pyrazol-4-yl)sulfonyl)-3-fluoropiperidin-4-yl)amino)-5-(trifluoromethyl)pyrimidin-4-yl)thiazol-5-yl)-2-methylpropan-2-ol], the pIC50 on CDK2/Cyclin E2 and in the test with OVCAR3 p-RB was not below 7.00 each time.

Turning to `Cc1cnc(N[C@H]2CCN(S(C)(=O)=O)C[C@H]2F)nc1-c1ncc(CC(C)(C)O)s1` [Example 155, 1-(2-(2-(((3R,4S)-3-fluoro-1-(methylsulfonyl)piperidin-4-yl)amino)-5-methylpyrimidin-4-yl)thiazol-5-yl)-2-methylpropan-2-ol], the pIC50 in the test on OVCAR3 p-RB was not below 7.00.

For orientation: pIC50 means the negative decadic logarithm of the IC50, by convention in mol/L.

(Values after patent publication US20240150340A1, “CDK Inhibitors And Their Use As Pharmaceuticals” (Prelude Therapeutics Incorporated, priority 2022, published 2024).)
